# Assays:
# [1] = tested on: uptake of SOD1 aggregates into neuro-2a cells; test: flow cytometric determination of the uptake of fluorescently labeled SOD1 aggregates into neuro-2a cells; format: cell-based; conditions: for uptake of fluorescently labeled SOD1 aggregates after treatment with endocytosis inhibitors: flow cytometry, FIG. 3
# [2] = tested on: ALS; conditions: clinical studies, compared to placebo, some individuals; cited from earlier work
# [3] = tested on: uptake of SOD1 aggregates into primary cortical neurons; test: flow cytometric determination of the uptake of fluorescently labeled SOD1 aggregates into primary cortical neurons; format: cell-based; conditions: primary cortical neurons of wild-type mice, treated as for neuro-2a cells, FIG. 7A
# Experimental: In order to investigate whether the results in neuro-2a cells can be expanded to primary cortical neurons, isolated, cultured and treated primary cortical neurons of wild-type mice were treated with heparinase and chondroitinase as previously for neuro-2a cells, before they were exposed to DyLight 488-labeled SOD1 aggregates (FIG. 7A). Likewise, the uptake of SOD1 aggregates after blocking with heparin was tested, as previously carried out for neuro-2a cells (FIG. 7A). The uptake of SOD1 aggregates was again quantified by flow cytometry. […] The “***” or “****” above the bars indicate the statistical significance of the results. “***” corresponds to a significance with p≤0.001 and “****” corresponds to a significance with p≤0.0001 in comparison to the control.
# [4] = tested on: prion diseases; conditions: in vivo; cited from earlier work
Molecule,uptake of fluorescently labeled SOD1 aggregates after treatment with endocytosis inhibitors ([1]; neuro-2a cells),other results
"CCN(c1nc(N)c(C(=O)N=C(N)N)nc1Cl)C(C)C [EIPA, 5-N-ethyl-N-isopropyl amiloride]",reduced the uptake of SOD1 aggregates significantly,–
"Oc1ccc2ccccc2c1SSc1c(O)ccc2ccccc12 [IPA-3, 2,2′-dihydroxy-1,1′-dinaphthyl disulfide]",reduced the uptake of SOD1 aggregates significantly,–
"CC1=NN(c2ccccc2)C(=O)C1 [Radicava, edaravone]",–,decrease in bodily function measured by ALSFRS-R [2]: significantly lower decrease in bodily function compared to placebo
"CN(C)CCCN1c2ccccc2Sc2ccc(Cl)cc21 [chloropromazine, Chlorpromazine]",Neither the chloropromazine treatment nor the genistein treatment inhibited the uptake of SOD1 aggregates significantly,–
C=C1[C@@H](C)[C@H]2[C@H](Cc3ccccc3)NC(=O)[C@]23[C@H](OC(C)=O)/C=C/[C@@](C)(O)C(=O)[C@@H](C)C/C=C/[C@H]3[C@@H]1O [cytochalasin D],significantly inhibited the uptake,–
O=C(N/N=C/c1ccc(O)c(O)c1)c1cc2ccccc2cc1O [dynasore],inhibited the uptake of SOD1 aggregates,–
"O=c1c(-c2ccc(O)cc2)coc2cc(O)cc(O)c12 [genistein, Genistein]",Neither the chloropromazine treatment nor the genistein treatment inhibited the uptake of SOD1 aggregates significantly,–
[Na+].[O-][Cl+2]([O-])[O-] [sodium chlorate],–,uptake of SOD1 aggregates after sodium chlorate treatment [1]: reduced the uptake of SOD1 aggregates in a dose-dependent manner
heparin,–,"uptake of DyLight 488-labeled SOD1 aggregates into primary cortical neurons [3]: inhibits uptake of SOD1 aggregates into primary cortical neurons; uptake of SOD1 aggregates pre-treated with heparin ([1]; aggregates treated at 4° C. with 1 mg/mL heparin for 6 hours, neuro-2a cells incubated 6 hours, FIG. 4B): inhibited the uptake of both wild-type and mutated SOD1 aggregates"
methyl-β-cyclodextrin,significantly reduced the uptake of SOD1 aggregates,–
pentosan polysulfate sodium [PPS],–,"survival of infected animals [4]: extending the survival of infected animals after intracerebroventricular perfusion in a dose-dependent manner; cellular uptake of fluorescently labeled wild-type and mutated SOD1 aggregates after PPS treatment ([1]; neuro-2a cells, increasing PPS concentrations, FIG. 5): competitively inhibited the cellular uptake of fluorescently labeled wild-type and mutated SOD1 aggregates at non-cytotoxic concentrations"

# Reference: US20240033282A1, “METHOD FOR IDENTIFYING AND/OR FOR OBTAINING AN ACTIVE SUBSTANCE FOR THE TREATMENT AND THERAPY OF FAMILIAL AMYOTROPHIC LATERAL SCLEROSIS, AND USE OF AN ACTIVE SUBSTANCE FOR THE TREATMENT OF THIS DISEASE” (Forschungszentrum Juelich GmbH, priority 2020, published 2024)
